The text below walks through data of patent US20230085307A1, “PYRIDAZINONE COMPOUND AND HERBICIDE” (NISSAN CHEMICAL CORPORATION, priority 2019, published 2023).

One test deals with blackgrass. Put plainly: Test Example 5: herbicidal effect by foliage application, plastic box (Table 20, symbol J). It is filed as in vivo, blackgrass (Alopecurus myosuroides). The following applies: foliage application, 320 g/ha, three weeks after application. The method in brief:
(§1)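 Sow seeds spot-wise in sterilized diluvial soil; cover with ~1.5 cm soil. Grow 14 days in greenhouse, 25° C. to 30° C. Spray foliage with emulsion diluted to predetermined amount. Rate effect after 3 weeks.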

The test system of the next test is southern crabgrass. The test is described as follows: Test Example 5: herbicidal effect by foliage application, plastic box (Table 20, symbol F). The test is classed as in vivo, southern crabgrass (Digitaria ciliaris). The following applies: foliage application, 320 g/ha, three weeks after application. The essentials: as §1
The test system of a further test is Japanese bulrush. The test is described as follows: Test Example 1: herbicidal activity, application before weed generation under submerged conditions (Table 16, symbol B). It is filed as in vivo, Japanese bulrush (Schoenoplectus juncoides). The method in brief: (§2)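 Alluvial soil was flooded to 4 cm depth, weed seeds were sown mixed and 2.5-leaf rice seedlings were transplanted. On sowing day, the compound's emulsion, diluted in water to a set dose, was applied to the water surface. Plants grew at 25–30 °C and were scored 0–5 after three weeks.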

The next test has as its system wild oat. The test is described as follows: Test Example 5: herbicidal effect by foliage application, plastic box (Table 20, symbol I). The test is classed as in vivo, wild oat (Avena fatua). The following applies: foliage application, 320 g/ha, three weeks after application. The method in brief: as §1
In test [1] the test system is barnyard grass. The test is described as follows: Test Example 3: herbicidal effect by foliage application, Wagner pot (Table 18, symbol H). The following applies: 320 g/ha. It is filed as in vivo, barnyard grass (Echinochloa crus-galli). The essentials: (§3)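 Plants were sown in alluvial soil held under 0.1–0.5 cm standing water and grown 14 days in a greenhouse at 25–30 °C. An emulsifiable formulation, water-diluted to the set dose, was then sprayed onto the foliage, and effects were scored three weeks later using previously defined criteria.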

Test [2] relates to barnyard grass. Put plainly: Test Example 5: herbicidal effect by foliage application, plastic box (Table 20, symbol H). The test is classed as in vivo, barnyard grass (Echinochloa crus-galli). The following applies: foliage application, 320 g/ha, three weeks after application. The method in brief:
as §1

A further test concerns windgrass. The test is described as follows: Test Example 5: herbicidal effect by foliage application, plastic box (Table 20, symbol L). It is filed as in vivo, windgrass (Apera spica-venti). The following applies: foliage application, 320 g/ha, three weeks after application. The method in brief: as §1
A further test has as its system false cleavers. The test is described as follows: Test Example 5: herbicidal effect by foliage application, plastic box (Table 20, symbol Q). The test is classed as in vivo, false cleavers (Galium spurium). The following applies: foliage application, 320 g/ha, three weeks after application. The essentials:
as §1

The subject of another test is lambsquarters. The test is described as follows: Test Example 5: herbicidal effect by foliage application, plastic box (Table 20, symbol O). The following applies: foliage application, 320 g/ha, three weeks after application. It is filed as in vivo, lambsquarters (Chenopodium album). The method in brief: as §1
Another test concerns Italian ryegrass. Put plainly: Test Example 5: herbicidal effect by foliage application, plastic box (Table 20, symbol K). It is filed as in vivo, Italian ryegrass (Lolium multiflorum). The following applies: foliage application, 320 g/ha, three weeks after application. The method in brief:
as §1

Another test has as its system rice flat sedge. The test is described as follows: Test Example 3: herbicidal effect by foliage application, Wagner pot (Table 18, symbol E). The following applies: 320 g/ha. The test is classed as in vivo, rice flat sedge (Cyperus iria). The essentials: as §3
The test system of a further test is chickweed. Put plainly: Test Example 5: herbicidal effect by foliage application, plastic box (Table 20, symbol P). The test is classed as in vivo, common chickweed (Stellaria media). The following applies: foliage application, 320 g/ha, three weeks after application. The essentials:
as §1

Another test concerns oval-leafed pondweed. Put plainly: Test Example 1: herbicidal activity, application before weed generation under submerged conditions (Table 16, symbol C). It is filed as in vivo, oval-leafed pondweed (Monochoria vaginalis). The method in brief: as §2
The subject of a further test is green foxtail. The test is described as follows: Test Example 5: herbicidal effect by foliage application, plastic box (Table 20, symbol G). It is filed as in vivo, green foxtail (Setaria viridis). The following applies: foliage application, 320 g/ha, three weeks after application. The essentials:
as §1

The next test deals with late watergrass. The test is described as follows: Test Example 1: herbicidal activity, application before weed generation under submerged conditions (Table 16, symbol A). The test is classed as in vivo, late watergrass (Echinochloa oryzicola). The essentials: as §2
The subject of a further test is persian speedwell. The test is described as follows: Test Example 5: herbicidal effect by foliage application, plastic box (Table 20, symbol R). It is filed as in vivo, Persian speedwell (Veronica persica). The following applies: foliage application, 320 g/ha, three weeks after application. The method in brief:
as §1

For a further test, the system named is Chinese sprangletop. The test is described as follows: Test Example 3: herbicidal effect by foliage application, Wagner pot (Table 18, symbol D). The following applies: 320 g/ha. The test is classed as in vivo, chinese sprangletop (Leptochloa chinensis). The essentials:
as §3

The next test relates to velvetleaf. Put plainly: Test Example 5: herbicidal effect by foliage application, plastic box (Table 20, symbol M). It is filed as in vivo, velvetleaf (Abutilon theophrasti). The following applies: foliage application, 320 g/ha, three weeks after application. The essentials: as §1
Where [3] appears, read: amount of applied herbicide 320 g/ha.

Regarding `COc1ccc(-c2sc3ccccc3c2-c2c(O)c(C)nn(C)c2=O)c(OC)c1` [1-070], the “herbicidal effect grade, J: blackgrass” value in the test on blackgrass was 0 (Herbicidal rate of 5% or less (almost no effect)). Besides, in the test with southern crabgrass, the “herbicidal effect grade, F: southern crabgrass” value is 3 (Herbicidal rate of 40% or more and less than 70%). In the test on Japanese bulrush (320 g/ha applied herbicide), the “Herbicidal effect on B: Japanese bulrush (grade 0-5)” value is 3 (Herbicidal rate of 40% or more and less than 70%). For the same molecule, the “herbicidal effect grade, I: wild oat” value with wild oat was 1 (Herbicidal rate of 5% or more and less than 20%). Further, the “herbicidal effect on H (barnyard grass), rating 0-5” value with barnyard grass [1] was 1 (Herbicidal rate of 5% or more and less than 20%). Further, the “herbicidal effect grade, H: barnyard grass” value in the test on barnyard grass [2] is on record as 0 (Herbicidal rate of 5% or less (almost no effect)). Moreover, the “herbicidal effect grade, L: windgrass” value with windgrass was 3 (Herbicidal rate of 40% or more and less than 70%). Further, the “herbicidal effect grade, Q: false cleavers” value in the test with false cleavers was 2 (Herbicidal rate of 20% or more and less than 40%). Further, the “herbicidal effect grade, O: lambsquarters” value in the test on lambsquarters is listed as 0 (Herbicidal rate of 5% or less (almost no effect)). In addition, the “herbicidal effect grade, K: Italian ryegrass” value with Italian ryegrass is 1 (Herbicidal rate of 5% or more and less than 20%). Moreover, the “herbicidal effect on E (rice flat sedge), rating 0-5” value with rice flat sedge was 3 (Herbicidal rate of 40% or more and less than 70%). For the same molecule, the “herbicidal effect grade, P: chickweed” value in the test with chickweed is listed as 5 (Herbicidal rate of 90% or more (almost completely withered)). The “Herbicidal effect on C: oval-leafed pondweed (grade 0-5)” value in the test with oval-leafed pondweed (320 g/ha applied herbicide) was 1 (Herbicidal rate of 5% or more and less than 20%). The “herbicidal effect grade, G: green foxtail” value with green foxtail was 3 (Herbicidal rate of 40% or more and less than 70%). In addition, in the test on late watergrass (320 g/ha applied herbicide), the “Herbicidal effect on A: late watergrass (grade 0-5)” value is 3 (Herbicidal rate of 40% or more and less than 70%). Also, the “herbicidal effect grade, R: persian speedwell” value in the test on persian speedwell is 4 (Herbicidal rate of 70% or more and less than 90%). Further, the “herbicidal effect on D (Chinese sprangletop), rating 0-5” value with Chinese sprangletop was 0 (Herbicidal rate of 5% or less (almost no effect)). For the same molecule, in the test on velvetleaf, the “herbicidal effect grade, M: velvetleaf” value is 2 (Herbicidal rate of 20% or more and less than 40%).

On to `COc1cc2sc(-c3ccccc3)c(-c3c(O)c(C)nn(C)c3=O)c2cc1OC` [5-055], for which the “herbicidal effect on blackgrass (J)” value with blackgrass was 0 (Herbicidal rate of 5% or less (almost no effect)). The “herbicidal effect on southern crabgrass (F)” value with southern crabgrass was 0 (Herbicidal rate of 5% or less (almost no effect)). Moreover, in the test with Japanese bulrush (setting [3]), the “Herbicidal effect, B: Japanese bulrush” value is given as 0 (Herbicidal rate of 5% or less (almost no effect)). The “herbicidal effect on wild oat (I)” value in the test with wild oat is on record as 0 (Herbicidal rate of 5% or less (almost no effect)). Moreover, the “herbicidal effect on barnyard grass (H)” value is 1 (Herbicidal rate of 5% or more and less than 20%) with barnyard grass [1]; 0 (Herbicidal rate of 5% or less (almost no effect)) with barnyard grass [2]. In addition, the “herbicidal effect on windgrass (L)” value with windgrass is recorded as 0 (Herbicidal rate of 5% or less (almost no effect)). In addition, the “herbicidal effect on false cleavers (Q)” value with false cleavers was 0 (Herbicidal rate of 5% or less (almost no effect)). Moreover, the “herbicidal effect on Italian ryegrass (K)” value with Italian ryegrass is 4 (Herbicidal rate of 70% or more and less than 90%). In addition, in the test with rice flat sedge, the “herbicidal effect on rice flat sedge (E)” value was 3 (Herbicidal rate of 40% or more and less than 70%). In addition, in the test with oval-leafed pondweed (setting [3]), the “Herbicidal effect, C: oval-leafed pondweed” value was 0 (Herbicidal rate of 5% or less (almost no effect)). The “herbicidal effect on green foxtail (G)” value in the test on green foxtail is reported as 0 (Herbicidal rate of 5% or less (almost no effect)). Further, the “Herbicidal effect, A: late watergrass” value with late watergrass (setting [3]) is 2 (Herbicidal rate of 20% or more and less than 40%). Besides, the “herbicidal effect on persian speedwell (R)” value in the test with persian speedwell is 4 (Herbicidal rate of 70% or more and less than 90%). Moreover, the “herbicidal effect on Chinese sprangletop (D)” value in the test with Chinese sprangletop is on record as 0 (Herbicidal rate of 5% or less (almost no effect)). The “herbicidal effect on velvetleaf (M)” value in the test with velvetleaf is 2 (Herbicidal rate of 20% or more and less than 40%).
